Experimental data taken from patent US20250059139A1, “COMPOUNDS FOR TREATMENT OF CANCER” (THE JOHNS HOPKINS UNIVERSITY, priority 2021, published 2025).

Target: T1, fl-HDAC4 (Homo sapiens, UniProt P56524)
T1 construct: Full-length (fl) [A.A. 1-1082] recombinant human histone deacetylase 4 (rhHDAC4) protein; FLAG (N); GST (given as 'with or without'); made in house; host or cells: HEK293-T
Assay: HDAC4 enzymatic assay with Lys(Tfa)-AMC substrate
Assay type: biochemical
Description: HDAC4 Enzymatic Assay. HDAC4 activity of the various recombinant forms used through these studies was assayed using the small non-protein Lys(Tfa)-AMC as described previously (Bottomley et al. J. Biol. Chem. 2008, 283:26694-26704). The specificity of this assay is documented via its inhibition by a small molecule trifluoroacetylthiophene-trifluoromethylketone derivative (TFT-PIP) described previously (id.).
Thus, TasQ's inhibition of HDAC4/NCoR1 formation involves only its binding to HDAC4. To resolve whether such TasQ binding involves the ZCD vs. ZRD in HDAC4, we took advantage of the fact that while HDAC4 has only marginal deacetylase activity against acetylated lysine-containing proteins, it can deacetylate a small non-protein trifluoroacetamide substrate (a.k.a., Lys(Tfa)-AMC). This reaction is inhibited by a small molecule trifluoroacetylthiophene-trifluoromethylketone derivative [a.k.a., TFT-PIP (FIG. 16)] due to its binding to the catalytic Zn^2+ in the ZCD, which locks the ZRD in the open conformation (Bottomley 2008).

T1 sequence (P56524 whole entry): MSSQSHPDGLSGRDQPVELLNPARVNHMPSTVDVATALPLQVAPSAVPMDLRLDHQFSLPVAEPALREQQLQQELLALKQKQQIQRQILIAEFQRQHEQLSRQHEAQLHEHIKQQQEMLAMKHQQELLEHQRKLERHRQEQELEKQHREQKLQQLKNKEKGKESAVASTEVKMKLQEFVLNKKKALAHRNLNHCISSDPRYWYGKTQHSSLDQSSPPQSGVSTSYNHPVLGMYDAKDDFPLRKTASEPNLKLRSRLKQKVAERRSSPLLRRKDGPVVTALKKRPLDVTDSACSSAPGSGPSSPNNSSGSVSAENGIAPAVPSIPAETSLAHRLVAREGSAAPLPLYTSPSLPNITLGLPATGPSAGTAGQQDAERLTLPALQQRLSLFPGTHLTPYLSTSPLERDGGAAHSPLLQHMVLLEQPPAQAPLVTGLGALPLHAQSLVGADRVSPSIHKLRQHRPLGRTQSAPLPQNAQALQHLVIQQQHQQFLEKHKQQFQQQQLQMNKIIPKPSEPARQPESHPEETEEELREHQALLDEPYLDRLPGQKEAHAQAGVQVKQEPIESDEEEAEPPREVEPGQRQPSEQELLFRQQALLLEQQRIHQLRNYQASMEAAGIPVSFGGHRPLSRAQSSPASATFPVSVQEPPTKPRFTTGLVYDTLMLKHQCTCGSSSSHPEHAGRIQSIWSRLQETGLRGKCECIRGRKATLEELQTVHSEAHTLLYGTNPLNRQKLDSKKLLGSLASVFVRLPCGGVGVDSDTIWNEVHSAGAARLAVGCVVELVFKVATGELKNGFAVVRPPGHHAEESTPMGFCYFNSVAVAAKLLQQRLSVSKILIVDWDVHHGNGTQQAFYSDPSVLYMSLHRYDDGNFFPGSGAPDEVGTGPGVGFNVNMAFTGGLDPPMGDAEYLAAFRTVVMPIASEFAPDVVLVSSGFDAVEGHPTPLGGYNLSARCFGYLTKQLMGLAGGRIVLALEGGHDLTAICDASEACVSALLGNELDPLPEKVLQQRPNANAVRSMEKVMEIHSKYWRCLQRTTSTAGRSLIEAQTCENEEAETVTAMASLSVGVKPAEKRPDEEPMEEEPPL

- effect on enzymatic activity of fl-HDAC4: inhibited
Structure (SMILES): O=C(c1ccc(C(=O)C(F)(F)F)s1)N1CCn2c(-c3ccccc3)cnc2C1 [TFT-PIP]
